Patent US20120021476A1, “Trace Element Solution For Biogas Methods” (AGRAFERM TECHNOLOGIES AG, priority 2007, published 2012)
Residues, ends and D or L forms follow the SMILES beside them.

system: not given; assay: not given; conditions: cited from earlier work

Compound	complexing of Mn^2+ in words
O=C(O)c1ccccc1O [(C6H4)(OH)(COOH), Salicylic acid]	very good
N[C@@H](Cc1c[nH]cn1)C(=O)O [C6H9O2N3, Histidine]	good
O=C(O)CN(CCN(CC(=O)O)CC(=O)O)CC(=O)O [C10H16O8N2, ethylenediaminetetraacetic acid]	very well
O=C(O)CS [CH2(SH)COOH, mercaptoacetic acid (thio-glycol acid)]	good
CC(=O)CC(C)=O [CH3(C═O)CH2(C═O)CH3, acetylacetone]	moderately well
O=C(O)CNCCNCC(=O)O [EDDA, Ethylendiimine diacetic acid]	well
O=P(O)(O)OP(=O)(O)O [H4P2O7, pyrophosphoric acid]	very strongly

system: not given; assay: not given; conditions: cited from earlier work; remark: another data set of the same source

Compound	complexing of Fe^3+ in words
O=C(O)c1ccccc1O [(C6H4)(OH)(COOH), Salicylic acid]	excellent
O=C(O)C(=O)O [(COOH)2, Oxalic acid]	good
O=C(O)CN(CCN(CC(=O)O)CC(=O)O)CC(=O)O [C10H16O8N2, ethylenediaminetetraacetic acid]	extremely well
O=C(O)CS [CH2(SH)COOH, mercaptoacetic acid (thio-glycol acid)]	excellent
CC(=O)CC(C)=O [CH3(C═O)CH2(C═O)CH3, acetylacetone]	extremely well
OB(O)O [H3O3B, boric acid]	very good
O=C(O)CC(O)(CC(=O)O)C(=O)O [HOOCCH2C(OH)(COOH)CH2COOH, Citric acid]	good
O=C(O)CC(O)C(=O)O (stereo not shown) [HOOCCH2CH(OH)COOH, malic acid]	good
meso-malic acid	good

system: not given; assay: not given; conditions: cited from earlier work; remark: another data set of the same source

Compound	complexing of Ni^2+ in words
O=C(O)c1ccccc1O [(C6H4)(OH)(COOH), Salicylic acid]	very good
O=C(O)C(=O)O [(COOH)2, Oxalic acid]	moderate
O=CC(=O)O [C2H2O3, oxoethanoic acid]	somewhat more poorly
N[C@@H](CS)C(=O)O [C3H7O2NS, Cysteine]	extremely well
N[C@@H](CC(=O)O)C(=O)O [C4H7O4N, Aspartic acid]	very well
O=C(O)c1cc(=O)[nH]c(=O)[nH]1 [C5H4O4N2, Orotic acid]	able to complex
N[C@@H](CCC(=O)O)C(=O)O [C5H9O4N, Glutamic acid]	very well
CC(C)[C@H](N)C(=O)O [C5H11O2N, valine]	very well
N[C@@H](Cc1c[nH]cn1)C(=O)O [C6H9O2N3, Histidine]	very good
N[C@@H](CSSC[C@H](N)C(=O)O)C(=O)O [C6H12O4N2S2, cystine]	very well
NCCCC[C@H](N)C(=O)O [C6H14O2N2, lysine]	very good
O=C(O)CN(CCN(CC(=O)O)CC(=O)O)CC(=O)O [C10H16O8N2, ethylenediaminetetraacetic acid]	very well
CC(=O)CC(C)=O [CH3(C═O)CH2(C═O)CH3, acetylacetone]	well
CC(=O)C(=O)O [CH3(C═O)COOH, oxopropionic acid (pyruvic acid, pyruvate)]	somewhat more poorly
CC(O)C(=O)O (stereo not shown) [CH3CH(OH)COOH, 2-hydroxypropionic acid (lactic acid)]	somewhat more poorly
O=C(O)CC(O)(CC(=O)O)C(=O)O [HOOCCH2C(OH)(COOH)CH2COOH, Citric acid]	good
O=C(O)CC(S)C(=O)O (stereo not shown) [HOOCCH2CH(SH)COOH, Mercaptomalic acid]	well
CC(C)[C@H](N)C(=O)N[C@H](C(=O)O)C(C)C [L-valyl-L-valine] (H-Val-Val-OH)	very good

system: not given; assay: not given; conditions: cited from earlier work; remark: another data set of the same source

Compound	complexing of Cu^2+ in words
O=C(O)c1ccccc1O [(C6H4)(OH)(COOH), Salicylic acid]	very good
O=C(O)C(=O)O [(COOH)2, Oxalic acid]	moderate
O=CC(=O)O [C2H2O3, oxoethanoic acid]	in small amounts
N[C@@H](CC(=O)O)C(=O)O [C4H7O4N, Aspartic acid]	very well
C[C@@H](O)[C@H](N)C(=O)O [C4H9O3N, Threonine]	very well
O=C(O)c1cc(=O)[nH]c(=O)[nH]1 [C5H4O4N2, Orotic acid]	able to complex
N[C@@H](CCC(=O)O)C(=O)O [C5H9O4N, Glutamic acid]	very well
CC(C)[C@H](N)C(=O)O [C5H11O2N, valine]	very well
N[C@@H](Cc1c[nH]cn1)C(=O)O [C6H9O2N3, Histidine]	very good
N[C@@H](CSSC[C@H](N)C(=O)O)C(=O)O [C6H12O4N2S2, cystine]	excellent
NCCCC[C@H](N)C(=O)O [C6H14O2N2, lysine]	very good
N[C@@H](Cc1ccccc1)C(=O)O [C9H11O2N, phenylalanine]	very good
O=C(O)CN(CCN(CC(=O)O)CC(=O)O)CC(=O)O [C10H16O8N2, ethylenediaminetetraacetic acid]	very well
CC(=O)CC(C)=O [CH3(C═O)CH2(C═O)CH3, acetylacetone]	well
CC(=O)C(=O)O [CH3(C═O)COOH, oxopropionic acid (pyruvic acid, pyruvate)]	in small amounts
CC(O)C(=O)O (stereo not shown) [CH3CH(OH)COOH, 2-hydroxypropionic acid (lactic acid)]	in small amounts
O=C(O)CC(O)(CC(=O)O)C(=O)O [HOOCCH2C(OH)(COOH)CH2COOH, Citric acid]	good

system: aromatic amino acid synthesis; assay: not given; conditions: cited from earlier work

Compound	effect on aromatic amino acid synthesis
O=C(O)CNCP(=O)(O)O [C3H8O5NP, n-phosphomethylglicine]	inhibits the aromatic amino acid synthesis

system: not listed separately; assay: Concentrations of the trace elements in the fermentation residue with different complexing agents; type: physicochemical; conditions: not given
Excerpt: In Table 1 the trace element solution according to the invention contains the complexing agent in a stoichiometric amount of 60% EDTA and 60% of a phosphoric acid mixture relative to the overall amount of trace elements, which is composed of identical molar amounts of pyrophosphoric acid (H4P2O7), polyphosphoric acid (H6P4O13), metaphosphoric acid (H4P4O12), hypophosphoric Acid (H3PO2) and phosphorus acid (phosphonic acid) (H3PO3).

Compound	Bio-availability (Invention) [%]
[Ca+2] [Ca, calcium]	100
[Co] [Co, cobalt]	100
[Mn+2] [Mn, manganese]	100
[Ni] [Ni, nickel]	100
[Zn] [Zn, zinc]	100

same assay, conditions: 60% EDTA 60% phosphoric acids

Compound	Bio-availability (Invention) [%]
[Al] [Al]	100
[Cu] [Cu, copper]	0
[Fe] [Fe, iron]	100
[Mg+2] [Mg, magnesium]	100

system: not given; assay: not given; conditions: cited from earlier work; remark: another data set of the same source

Compound	complexing of Co^2+ in words
O=C(O)c1ccccc1O [(C6H4)(OH)(COOH), Salicylic acid]	very good
O=C(O)C(=O)O [(COOH)2, Oxalic acid]	moderate
O=CC(=O)O [C2H2O3, oxoethanoic acid]	somewhat more poorly
N[C@@H](CS)C(=O)O [C3H7O2NS, Cysteine]	extremely well
C[C@@H](O)[C@H](N)C(=O)O [C4H9O3N, Threonine]	good
O=C(O)c1cc(=O)[nH]c(=O)[nH]1 [C5H4O4N2, Orotic acid]	able to complex
N[C@@H](Cc1c[nH]cn1)C(=O)O [C6H9O2N3, Histidine]	very good
O=C(O)CN(CCN(CC(=O)O)CC(=O)O)CC(=O)O [C10H16O8N2, ethylenediaminetetraacetic acid]	very well
O=C(O)CS [CH2(SH)COOH, mercaptoacetic acid (thio-glycol acid)]	very good
CC(=O)CC(C)=O [CH3(C═O)CH2(C═O)CH3, acetylacetone]	moderately well
CC(=O)C(=O)O [CH3(C═O)COOH, oxopropionic acid (pyruvic acid, pyruvate)]	somewhat more poorly
CC(O)C(=O)O (stereo not shown) [CH3CH(OH)COOH, 2-hydroxypropionic acid (lactic acid)]	somewhat more poorly
O=C(O)CNCCNCC(=O)O [EDDA, Ethylendiimine diacetic acid]	very well
O=C(O)CC(O)(CC(=O)O)C(=O)O [HOOCCH2C(OH)(COOH)CH2COOH, Citric acid]	good

system: not given; assay: not given; conditions: cited from earlier work; remark: another data set of the same source

Compound	complexing of Al^3+ in words
N[C@@H](CC(=O)O)C(=O)O [C4H7O4N, Aspartic acid]	only moderately
N[C@@H](Cc1c[nH]cn1)C(=O)O [C6H9O2N3, Histidine]	good
CC(=O)CC(C)=O [CH3(C═O)CH2(C═O)CH3, acetylacetone]	extremely well
O=C(O)CC(O)C(=O)O (stereo not shown) [HOOCCH2CH(OH)COOH, malic acid]	good
meso-malic acid	good

system: not given; assay: not given; conditions: cited from earlier work; remark: another data set of the same source

Compound	complexing of Zn^2+ in words
O=C(O)c1ccccc1O [(C6H4)(OH)(COOH), Salicylic acid]	good
O=C(O)C(=O)O [(COOH)2, Oxalic acid]	moderate
N[C@@H](CC(=O)O)C(=O)O [C4H7O4N, Aspartic acid]	very well
C[C@@H](O)[C@H](N)C(=O)O [C4H9O3N, Threonine]	good
N[C@@H](CCC(=O)O)C(=O)O [C5H9O4N, Glutamic acid]	not so well
CC(C)[C@H](N)C(=O)O [C5H11O2N, valine]	very well
N[C@@H](Cc1c[nH]cn1)C(=O)O [C6H9O2N3, Histidine]	very good
N[C@@H](CSSC[C@H](N)C(=O)O)C(=O)O [C6H12O4N2S2, cystine]	very well
NCCCC[C@H](N)C(=O)O [C6H14O2N2, lysine]	well
N[C@@H](Cc1ccccc1)C(=O)O [C9H11O2N, phenylalanine]	very good
O=C(O)CN(CCN(CC(=O)O)CC(=O)O)CC(=O)O [C10H16O8N2, ethylenediaminetetraacetic acid]	very well
O=C(O)CS [CH2(SH)COOH, mercaptoacetic acid (thio-glycol acid)]	excellent
O=C(O)CNCCNCC(=O)O [EDDA, Ethylendiimine diacetic acid]	very well
O=C(O)CC(S)C(=O)O (stereo not shown) [HOOCCH2CH(SH)COOH, Mercaptomalic acid]	well

system: not given; assay: not given; conditions: equimolar EDTA, neutral pH
Excerpt: If instead of EDTA, complexing agents are used which form complexes of two or several ligands of the complexing agent per metal atom, then a correspondingly multiple (double, multiple) molar amount of the relevant ligands must be used in order to complex the trace elements in the solution.

precipitation in the presence of H2S	Compound
no precipitation	O=C(O)CN(CCN(CC(=O)O)CC(=O)O)CC(=O)O [C10H16O8N2, ethylenediaminetetraacetic acid]

system: not given; assay: not given; conditions: cited from earlier work; remark: another data set of the same source

Compound	complexing of Ca^2+ in words
O=C(O)C(=O)O [(COOH)2, Oxalic acid]	precipitates
N[C@@H](Cc1c[nH]cn1)C(=O)O [C6H9O2N3, Histidine]	poor
O=C(O)CN(CCN(CC(=O)O)CC(=O)O)CC(=O)O [C10H16O8N2, ethylenediaminetetraacetic acid]	very well
OB(O)O [H3O3B, boric acid]	only with difficulty

system: not given; assay: not given; conditions: cited from earlier work; remark: another data set of the same source

Compound	complexing of Mg^2+ in words
O=C(O)CN(CCN(CC(=O)O)CC(=O)O)CC(=O)O [C10H16O8N2, ethylenediaminetetraacetic acid]	well
CC(=O)CC(C)=O [CH3(C═O)CH2(C═O)CH3, acetylacetone]	moderately well
OB(O)O [H3O3B, boric acid]	only with difficulty
O=P(O)(O)OP(=O)(O)O [H4P2O7, pyrophosphoric acid]	very strongly

system: not listed separately; assay: Concentrations of the trace elements in the fermentation residue with different complexing agents; type: physicochemical; conditions: not given; remark: another data set of the same source

Compound	Bio-availability [%]	Difference [%]	available share of the added volume [ppm]	bio-availability in words
[Mn+2] [Mn, manganese]	31	−99.2		
[Ni] [Ni, nickel]	0	−100.0	2	hardly bio-available at all

same assay, conditions: 50% NTA

Compound	bio-availability in words
[Co] [Co, cobalt]	hardly bio-available at all
[Zn] [Zn, zinc]	hardly bio-available at all

same assay, conditions: 100 × times metal versus Simple, 50% NTA

Compound	Difference [%]
[Al] [Al]	9931.3
[Ca+2] [Ca, calcium]	38.2
[Co] [Co, cobalt]	−100.0
[Cu] [Cu, copper]	−100.0
[Fe] [Fe, iron]	4260.1
[Mg+2] [Mg, magnesium]	9698.1
[Zn] [Zn, zinc]	−100.0

same assay, conditions: column after 50% NTA and citrate (500%), not the invention

Compound	Bio-availability [%]
[Al] [Al]	100
[Ca+2] [Ca, calcium]	100
[Co] [Co, cobalt]	0
[Cu] [Cu, copper]	0
[Fe] [Fe, iron]	100
[Mg+2] [Mg, magnesium]	100
[Zn] [Zn, zinc]	0

system: not given; assay: not given; conditions: cited from earlier work; remark: another data set of the same source

Compound	complexing of Fe^2+ in words
O=C(O)C(=O)O [(COOH)2, Oxalic acid]	moderate
O=CC(=O)O [C2H2O3, oxoethanoic acid]	somewhat more poorly
O=C[C@H](O)[C@@H](O)[C@@H](O)[C@H](O)C(=O)O [C6H10O7, galacturonic acid]	very well
O=C(O)CN(CCN(CC(=O)O)CC(=O)O)CC(=O)O [C10H16O8N2, ethylenediaminetetraacetic acid]	very well
O=C(O)CS [CH2(SH)COOH, mercaptoacetic acid (thio-glycol acid)]	very good
CC(=O)CC(C)=O [CH3(C═O)CH2(C═O)CH3, acetylacetone]	moderately well
CC(=O)C(=O)O [CH3(C═O)COOH, oxopropionic acid (pyruvic acid, pyruvate)]	somewhat more poorly
CC(O)C(=O)O (stereo not shown) [CH3CH(OH)COOH, 2-hydroxypropionic acid (lactic acid)]	somewhat more poorly
